Assay [1] has as its target Histone acetyltransferase p300 (Homo sapiens, UniProt Q09472). Description: Binding affinity to p300 (unknown origin).
Assay [2] has as its target T1, CREB-binding protein/Histone acetyltransferase p300 (Homo sapiens, UniProt Q09472+Q92793). Description: Inhibition of GST-tagged p300 (unknown origin)/CBP (unknown origin) protein-protein interaction by fluorescence polarization assay. (In general: Polarisation of emitted light reports the rotation of a fluorescent probe.)
Assay [3] deals with Hypoxia-inducible factor 1-alpha (Homo sapiens, UniProt Q16665). The experiment in a line: Inhibition of HIF-1alpha in human U373 cells. The format is cell-based, U-373MG ATCC.
In assay [4] the target is T1, CREB-binding protein/Histone acetyltransferase p300. The experiment in a line: Inhibition of GST-tagged p300 (unknown origin)/CBP (unknown origin) protein-protein interaction. The format is protein assay.
A further assay deals with Hep 3B2. Description: Downregulation of VEGF protein level in human Hep3B cells after 8 hrs by ELISA. The format is functional, cell-based. For orientation: An ELISA detects its analyte on a solid surface through an enzyme-linked reagent.

Chain of Hypoxia-inducible factor 1-alpha (Q16665 whole entry): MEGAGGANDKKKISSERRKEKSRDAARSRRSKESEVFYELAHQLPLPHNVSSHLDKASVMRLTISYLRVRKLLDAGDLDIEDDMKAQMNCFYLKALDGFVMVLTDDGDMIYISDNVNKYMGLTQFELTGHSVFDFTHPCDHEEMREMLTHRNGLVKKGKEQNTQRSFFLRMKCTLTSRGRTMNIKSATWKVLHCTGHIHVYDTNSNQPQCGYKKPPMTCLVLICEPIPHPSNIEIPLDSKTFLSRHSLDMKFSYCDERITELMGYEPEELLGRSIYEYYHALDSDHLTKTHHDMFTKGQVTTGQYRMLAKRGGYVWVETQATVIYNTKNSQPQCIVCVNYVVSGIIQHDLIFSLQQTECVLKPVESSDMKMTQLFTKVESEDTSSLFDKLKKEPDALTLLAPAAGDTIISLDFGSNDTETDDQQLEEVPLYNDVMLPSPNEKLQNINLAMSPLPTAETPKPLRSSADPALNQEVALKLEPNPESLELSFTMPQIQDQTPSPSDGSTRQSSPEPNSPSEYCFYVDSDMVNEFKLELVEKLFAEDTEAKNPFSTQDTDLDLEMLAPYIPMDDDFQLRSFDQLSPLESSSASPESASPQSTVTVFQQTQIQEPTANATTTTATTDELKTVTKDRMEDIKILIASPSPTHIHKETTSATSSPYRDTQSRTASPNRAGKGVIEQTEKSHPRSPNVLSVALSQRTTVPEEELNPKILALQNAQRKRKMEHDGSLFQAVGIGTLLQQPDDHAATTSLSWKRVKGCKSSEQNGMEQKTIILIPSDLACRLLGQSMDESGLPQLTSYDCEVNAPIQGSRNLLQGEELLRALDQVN
Chain of Histone acetyltransferase p300 (Q09472 whole entry): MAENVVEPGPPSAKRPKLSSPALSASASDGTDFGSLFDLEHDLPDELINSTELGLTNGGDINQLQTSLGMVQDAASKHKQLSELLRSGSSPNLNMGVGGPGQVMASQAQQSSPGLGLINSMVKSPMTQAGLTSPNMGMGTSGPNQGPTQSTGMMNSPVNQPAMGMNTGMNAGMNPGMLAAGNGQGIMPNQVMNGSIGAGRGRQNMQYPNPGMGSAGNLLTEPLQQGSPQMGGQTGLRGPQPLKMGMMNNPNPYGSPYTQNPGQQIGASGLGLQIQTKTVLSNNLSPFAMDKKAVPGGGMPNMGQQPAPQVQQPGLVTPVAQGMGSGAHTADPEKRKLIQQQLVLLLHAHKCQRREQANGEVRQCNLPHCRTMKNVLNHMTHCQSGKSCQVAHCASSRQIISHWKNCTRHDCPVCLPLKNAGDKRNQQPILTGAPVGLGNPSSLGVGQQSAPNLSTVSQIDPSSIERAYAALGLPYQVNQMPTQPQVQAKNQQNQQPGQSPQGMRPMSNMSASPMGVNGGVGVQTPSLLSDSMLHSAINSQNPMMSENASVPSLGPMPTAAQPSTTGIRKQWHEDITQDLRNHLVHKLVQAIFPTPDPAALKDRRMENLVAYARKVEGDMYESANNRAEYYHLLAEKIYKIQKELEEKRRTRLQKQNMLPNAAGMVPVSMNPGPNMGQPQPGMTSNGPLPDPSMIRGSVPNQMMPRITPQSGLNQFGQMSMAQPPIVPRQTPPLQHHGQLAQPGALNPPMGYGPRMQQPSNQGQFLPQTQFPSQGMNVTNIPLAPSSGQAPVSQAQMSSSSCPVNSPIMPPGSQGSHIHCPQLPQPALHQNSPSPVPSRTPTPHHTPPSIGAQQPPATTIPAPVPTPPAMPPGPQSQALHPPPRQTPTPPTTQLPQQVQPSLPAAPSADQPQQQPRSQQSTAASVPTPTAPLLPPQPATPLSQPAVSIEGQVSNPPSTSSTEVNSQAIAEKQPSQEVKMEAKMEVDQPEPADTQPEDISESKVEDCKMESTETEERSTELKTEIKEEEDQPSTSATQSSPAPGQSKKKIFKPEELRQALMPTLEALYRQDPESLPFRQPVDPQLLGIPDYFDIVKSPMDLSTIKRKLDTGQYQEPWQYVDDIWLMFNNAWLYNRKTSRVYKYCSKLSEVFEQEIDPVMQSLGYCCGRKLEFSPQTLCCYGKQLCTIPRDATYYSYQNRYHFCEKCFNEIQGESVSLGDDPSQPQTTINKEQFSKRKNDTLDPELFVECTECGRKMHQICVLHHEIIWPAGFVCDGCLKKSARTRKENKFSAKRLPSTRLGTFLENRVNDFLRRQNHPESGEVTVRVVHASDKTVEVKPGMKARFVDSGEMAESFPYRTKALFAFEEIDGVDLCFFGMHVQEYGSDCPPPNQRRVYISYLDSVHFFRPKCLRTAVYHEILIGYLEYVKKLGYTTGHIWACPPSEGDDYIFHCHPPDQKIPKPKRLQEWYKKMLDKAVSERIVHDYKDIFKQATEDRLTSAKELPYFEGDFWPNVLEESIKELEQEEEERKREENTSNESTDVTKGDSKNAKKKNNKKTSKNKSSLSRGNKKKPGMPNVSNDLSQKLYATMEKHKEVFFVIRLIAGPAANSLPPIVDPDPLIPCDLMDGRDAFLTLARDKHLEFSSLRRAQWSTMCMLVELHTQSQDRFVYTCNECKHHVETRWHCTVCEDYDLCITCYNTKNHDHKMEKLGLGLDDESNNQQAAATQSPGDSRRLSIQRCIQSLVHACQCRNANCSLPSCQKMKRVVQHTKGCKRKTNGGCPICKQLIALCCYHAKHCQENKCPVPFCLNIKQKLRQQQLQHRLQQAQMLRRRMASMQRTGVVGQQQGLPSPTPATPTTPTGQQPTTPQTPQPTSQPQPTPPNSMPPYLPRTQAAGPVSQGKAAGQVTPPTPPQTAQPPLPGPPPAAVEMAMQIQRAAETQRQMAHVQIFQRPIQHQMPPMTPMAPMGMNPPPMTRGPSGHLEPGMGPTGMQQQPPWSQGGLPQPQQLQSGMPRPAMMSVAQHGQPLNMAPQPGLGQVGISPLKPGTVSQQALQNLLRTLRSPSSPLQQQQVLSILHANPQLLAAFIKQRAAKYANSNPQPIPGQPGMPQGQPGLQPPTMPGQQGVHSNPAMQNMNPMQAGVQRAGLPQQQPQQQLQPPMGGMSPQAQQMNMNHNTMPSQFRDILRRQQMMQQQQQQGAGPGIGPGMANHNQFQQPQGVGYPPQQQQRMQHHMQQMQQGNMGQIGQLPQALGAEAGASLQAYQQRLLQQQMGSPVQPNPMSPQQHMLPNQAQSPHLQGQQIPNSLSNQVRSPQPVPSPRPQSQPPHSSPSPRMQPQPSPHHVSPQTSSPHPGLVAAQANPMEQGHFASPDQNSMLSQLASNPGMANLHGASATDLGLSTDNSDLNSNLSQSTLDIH

For the molecule `CC(C)C[C@H](NC(=O)[C@H](C)NC(=O)[C@H](CCCNC(=N)N)NC(=O)[C@H](C)N1CC/C=C\CC(=O)N[C@@H](CCC(=O)O)C(=O)N[C@@H](CC(C)C)C1=O)C(=O)N[C@@H](CC(=O)O)C(=O)N[C@@H](CCC(N)=O)C(N)=O`, in assay [1], the Kd (usually the constant that tells how readily two partners part at equilibrium) worked out at 0.69 µM. Take `CN1C(=O)[C@]2(Cc3ccc(CCc4ccc(C[C@@]56SS[C@@](CO)(C(=O)N5C)N(C)C6=O)cc4)cc3)SS[C@@]1(CO)C(=O)N2C`: the IC50 – broadly, the concentration that inhibits the measured activity by half – in assay [2] turned out to be 0.6 µM.

In turn, `CN1C(=O)[C@]2(Cc3ccc(C[C@@]45SS[C@@](CO)(C(=O)N4C)N(C)C5=O)cc3)SS[C@@]1(CO)C(=O)N2C` showed a concentration for half-maximal inhibition (IC50) in assay [2] of 1.5 µM. On to `COc1cc([C@@H]2c3cc4c(cc3[C@@H](Nc3ccc([N+](=O)[O-])cc3)[C@H]3COC(=O)[C@H]23)OCO4)cc(OC)c1O`, for which, in assay [3], the concentration for half-maximal inhibition (IC50) lay in the range of 0.001 to 0.005 µM. With `CC(C)Cc1cc(CNC(=O)N2CCN(CC(=O)Nc3ccccc3Cl)CC2)nn1-c1ccccc1.Cl`, in assay [4], the concentration for half-maximal inhibition (IC50) amounted to 107 µM. On to `CN1C(=O)[C@@]23C[C@]4([C@]56C[C@@]78SS[C@@](CO)(C(=O)N7[C@H]5Nc5ccccc56)N(C)C8=O)c5ccccc5N[C@@H]4N2C(=O)[C@]1(CO)SS3` [CHAETOCIN], for which, in the assay on Hep 3B2, the 50% inhibitory concentration (IC50) was 0.1 µM.

Source of the values: ChEMBL document CHEMBL4396864, “Small-Molecule Modulators of the Hypoxia-Inducible Factor Pathway: Development and Therapeutic Applications” (J Med Chem, 2019).
